Measurements taken from US20170014469A1, “METHODS OF RE[…] LATENT HUMAN IMMUNODEFICIENCY VIRUS” (priority 2013, published 2017).
“Also recorded” adds a separate entry of the source. Like-named read-outs stand apart in the source and are kept apart here.

Key:
[1] = system: latently HIV-1 infected EF7 and CA5 T cells; settings: PMA stimulation; cited from earlier work
[2] = system: latent HIV-1 infection in CA5 T cells; format: cell-based; settings: for HIV-1 reactivation in combination with disulfiram: 24 hour pretreatment with bortezomib, disulfiram titrated, FIG. 3; for HIV-1 reactivation in combination with disulfiram / HIV-1 reactivation in combination with bryostatin: read 24 hours after addition; for HIV-1 reactivation in combination with bryostatin: 24 hour pretreatment with proteasome inhibitor, bryostatin titrated; for HIV-1 reactivation by the proteasome inhibitor by itself: CA5 T cells pretreated 24 hours
Experimental: (§1) Increased protein-ubiquitination for targeting to the proteasome by the E3 ubiquitin ligase GRAIL is a hallmark of T cell anergy. […] FIG. 2B is a graph showing bortezomib in combination with the activator bryostatin. FIG. 2C is a graph showing bortezomib in combination with the activator prostratin.
CA5 T cells were pretreated for 24 hours with bortezomib. Disulfiram was titrated on control cells or bortezomib pretreated T cells. Reactivation was measured 24 hours after disulfiram addition by determining the percentage of GFP-positive cells using flow cytometric analysis.
CA5 T cells were pretreated for 24 hours with carfilzomib. Bryostatin was titrated on control cells or carfilzomib pretreated T cells. Reactivation was measured 24 hours after bryostatin addition by determining the percentage of GFP-positive cells using flow cytometric analysis.
As mentioned above, T cell anergy has been reported to be associated with a series of changes in the kinase activity profile. A hallmark of T cell anergy is the expression of GRAIL (gene related to anergy in lymphocytes), a trans-membrane RING finger ubiquitin E3 ligase (Anandasabapathy et al., Immunity 18:535-547 (2003)). As other ubiquitin ligases, GRAIL tags proteins for degradation by the proteasome. […] In order to determine this, two FDA-approved proteasome inhibitors, bortezomib and carfilzomib, were tested for their ability to mobilize latent HIV-1 infection, either by themselves, or in combination with potentially therapeutically relevant known HIV-1 reactivating activators, such as bryostatin, prostratin, and disulfiram.

[3] = system: latent HIV-1 infection in J2574 reporter T cells; assay: Establishment of latent HIV-1 infection in J2574 reporter T cells after ionomycin pretreatment; format: cell-based; settings: ionomycin pretreatment of J2574 T cells versus untreated control, independent of the level of virus input, FIG. 2A
Text: as §1, with “FIGS. 2A, 2B, and 2C show targeting anergy-related mechanisms alters HIV-1 latency control. […] Increased” for “Increased”
Without being bound by any theory, a working concept derived from the altered cellular phenotype observed in latently HIV-1 infected T cells could be that HIV-1 latency is correlated with the induction of a pseudoanergic state of the host-cell. HIV-1 infection has been reported to be associated with high levels of induced T cell anergy. Exposure to gp120 has been reported to be sufficient to trigger T cell anergy (Bouhdoud et al., Journal of Virology 74:2121-2130 (2000); Dybul et al., J. Immunol. 165:1685-91 (2000); Masci et al., Journal of Leukocyte Biology 74:1117-1124 (2003); and Schols and De Clercq, Journal of Virology 70:4953-4960 (1996)). Also, other retroviruses are reported to induce epigenetic changes in their host cells. Ubiquitin and CDK2 are also known to be involved in T cell anergy (Greenwald et al., Immunity 14:145-155 (2001); and Li et al., Nature Immunology 7:1157-65 (2006)). […]

CCCCCCCCCCCCCC(=O)O[C@@H]1[C@@H](C)[C@@]2(O)[C@@H](C=C(CO)C[C@]3(O)C(=O)C(C)=C[C@@H]23)[C@@H]2C(C)(C)[C@]12OC(C)=O [PMA, phorbol 12-myristate 13-acetate]
reactivation at the population level [1]: > 90%

CC(C)C[C@H](NC(=O)[C@H](Cc1ccccc1)NC(=O)c1cnccn1)B(O)O [bortezomib]
HIV-1 reactivation in combination with prostratin ([2]; 24 hour pretreatment with bortezomib (5 nM), prostratin titrated, CA5 T cells, FIG. 2C): interacted with prostratin | HIV-1 reactivation in combination with disulfiram ([2]; CA5 T cells): synergistically trigger HIV-1 reactivation | HIV-1 reactivation in combination with disulfiram ([2]; CA5 T cells, listed as Bortezomib): interacted | activator concentrations required to trigger full HIV-1 reactivation at the population level ([2]; 24 hour pretreatment with proteasome inhibitor (bortezomib 5 nM), activators bryostatin or prostratin, CA5 T cells): reduces | HIV-1 reactivation in combination with bryostatin ([2]; CA5 T cells): highly synergistic | latently infected T cells in which latent HIV-1 infection was mobilized ([2]; bortezomib 5 nM by itself, CA5 T cells, FIG. 2B): ~30% | HIV-1 reactivation by the proteasome inhibitor by itself [2]: mobilizes latent HIV-1 infection

CC(C)C[C@H](NC(=O)[C@H](CCc1ccccc1)NC(=O)CN1CCOCC1)C(=O)N[C@@H](Cc1ccccc1)C(=O)N[C@@H](CC(C)C)C(=O)[C@@]1(C)CO1 [carfilzomib]
HIV-1 reactivation in combination with bryostatin ([2]; CA5 T cells): trigger HIV-1 reactivation | HIV-1 reactivation in combination with bryostatin ([2]; CA5 T cells, listed as Carfilzomib): potently interacted | HIV-1 reactivation by the proteasome inhibitor by itself [2]: triggered HIV-1 reactivation

C[C@H](CCC(=O)O)C[C@H](C)C[C@H](C)C(=O)/C=C(\O)[C@H](C)C[C@H](C)C/C=C/[C@@H](C)[C@@H](O)[C@@H](C)[C@@H](O)C[C@@H]1CC[C@@](C)([C@H]2CC[C@@](C)([C@@H](C)O)O2)O1 [ionomycin]
amount of established stable latent infection events [3]: promotes the establishment of latent HIV-1 infection; also recorded: almost doubled
